In ChEMBL document CHEMBL1140373, “Azepanone-based inhibitors of human cathepsin L” (J Med Chem, 2005):
pKi: −log10 of the molar value. Residues, ends and D or L forms follow the SMILES beside them. *: point of attachment. Cbz = O=C(OCc1ccccc1)*

What was measured:
Cathepsin S = Cathepsin S (Homo sapiens, UniProt P25774)
Description: Apparent inhibitory constant against human cathepsin S

Cathepsin K = target: T1, Cathepsin K (Homo sapiens, UniProt P43235); experiment: Apparent inhibitory constant against human cathepsin K; conditions: read-out: Ki app
T1 sequence (P43235 whole entry): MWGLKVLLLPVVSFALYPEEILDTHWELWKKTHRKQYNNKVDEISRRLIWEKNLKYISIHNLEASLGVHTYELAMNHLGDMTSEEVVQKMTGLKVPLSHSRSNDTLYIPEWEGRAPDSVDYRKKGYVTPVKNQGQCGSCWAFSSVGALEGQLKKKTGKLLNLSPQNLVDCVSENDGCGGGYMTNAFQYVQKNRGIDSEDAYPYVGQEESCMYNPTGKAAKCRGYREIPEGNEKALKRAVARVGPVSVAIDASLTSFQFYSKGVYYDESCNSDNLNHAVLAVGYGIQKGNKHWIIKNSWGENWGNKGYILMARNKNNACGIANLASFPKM

Cathepsin B = Cathepsin B (Homo sapiens, UniProt P07858); experiment: Apparent inhibitory constant against human cathepsin B; conditions: read-out: Ki app
Procathepsin L = Procathepsin L (Homo sapiens, UniProt P07711); experiment: Apparent inhibitory constant against human cathepsin L; conditions: read-out: Ki app
Chain of Procathepsin L (P07711 whole entry): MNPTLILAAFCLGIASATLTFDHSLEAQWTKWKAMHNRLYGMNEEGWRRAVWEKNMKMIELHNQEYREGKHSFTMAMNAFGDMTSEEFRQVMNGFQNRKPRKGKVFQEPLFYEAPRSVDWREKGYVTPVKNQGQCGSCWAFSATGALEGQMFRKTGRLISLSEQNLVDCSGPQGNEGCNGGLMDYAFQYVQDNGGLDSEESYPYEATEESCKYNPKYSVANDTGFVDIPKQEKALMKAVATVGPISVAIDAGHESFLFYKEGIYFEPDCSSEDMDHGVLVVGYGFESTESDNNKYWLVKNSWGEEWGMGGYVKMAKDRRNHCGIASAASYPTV

Chain of Cathepsin S (P25774 whole entry): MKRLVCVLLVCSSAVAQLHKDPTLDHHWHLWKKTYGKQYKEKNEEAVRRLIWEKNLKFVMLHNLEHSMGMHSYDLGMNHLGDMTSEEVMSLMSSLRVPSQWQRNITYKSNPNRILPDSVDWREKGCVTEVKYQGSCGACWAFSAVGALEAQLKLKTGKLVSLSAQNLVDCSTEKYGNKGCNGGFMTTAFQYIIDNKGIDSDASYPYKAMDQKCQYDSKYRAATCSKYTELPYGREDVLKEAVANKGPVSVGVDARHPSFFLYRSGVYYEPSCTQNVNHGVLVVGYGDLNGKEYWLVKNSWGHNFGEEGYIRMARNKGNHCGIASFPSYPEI

SMILES | pKi (Cathepsin S) | pKi (Cathepsin K) | pKi (Cathepsin B) | pKi (Procathepsin L)
O=C(N[C@@H](Cc1ccccc1)C(=O)N[C@H]1CCCN(S(=O)(=O)c2ccccn2)CC1=O)c1cc2ccccc2o1 | 8.05 | 7.98 | 6.71 | 8.77
CC(C)C[C@H](NC(=O)c1cccc2cccnc12)C(=O)N[C@H]1CCCN(S(=O)(=O)c2ccccn2)CC1=O | 7.39 | 7.28 | < 6.00 | 8.09
O=C(N[C@@H](Cc1ccc2ccccc2c1)C(=O)N[C@H]1CCCN(S(=O)(=O)c2ccccn2)CC1=O)c1cccc2ccccc12 | 7.81 | < 5.00 | 6.82 | 9.37
CC(C)C[C@H](NC(=O)c1cccc2ccccc12)C(=O)N[C@H]1CCCN(S(=O)(=O)c2ccccn2)CC1=O | 8.24 | 7.92 |  | 8.85
O=C(N[C@@H](Cc1ccc2ccccc2c1)C(=O)N[C@H]1CCCN(S(=O)(=O)c2ccccn2)CC1=O)c1cc2ccccc2o1 | 8.51 | 6.53 | 7.62 | 9.24
CC(C)C[C@H](NC(=O)c1ccc2ccccc2n1)C(=O)N[C@H]1CCCN(S(=O)(=O)c2ccccn2)CC1=O | 7.57 | 9.05 | 6.13 | 8.30
O=C[C@H](Cc1ccc(O)cc1)NC(=O)[C@H](Cc1ccccc1)NC(=O)OCc1ccccc1 (Cbz-Phe-Tyr-aldehyde) | 9.59 | 9.13 |  | 9.33
